Literature values as cited in patent US10646532B2, “Method for preparing water extract of ashwagandha leaves which has enhanced anti-cancer activity utilizing cyclodextrin, and pharmaceutical composition containing ashwagandha leaves” (National Institute of Advanced Industrial Science and …, priority 2014, dated 2020).

System: cancer cells / normal cells
Conditions: in vitro test, background art

CC1=C(C)C(=O)OC([C@@H](C)C2(O)CC[C@H]3[C@@H]4[C@@H]5O[C@@H]5C5(O)CC=CC(=O)[C@]5(C)[C@H]4CC[C@@]32C)C1 (stereo partly shown) [withanone]
cytotoxicity to cancer cells versus normal cells: selective cytotoxicity to cancer cells
